Measurements: paper PMC9182141, “Assay Development and Identification of the First Plasmodium falciparum 7,8-dihydro-6-hydroxymethylpterin-pyrophosphokinase Inhibitors” (Molecules, 2022)

Columns and labels:
PfHPPK-GFP [1] = target: T1, PfHPPK-GFP (Plasmodium falciparum, UniProt Q25704); assay: DSF-GTP (GFP-tagged protein differential scanning fluorimetry) thermal shift; assay type: binding
Description: In a preliminary screening experiment, buffer conditions were investigated, searching for conditions that provide the largest thermal shift in the presence of 1 mM ATP. DSF curves were recorded under a total of 17 different conditions, with variations in buffer nature and pH, salts nature and concentration, effect of reducing agent, MgSO4 and glycerol.
From there, protein binding properties of the hit compounds were assessed experimentally using the developed DSF-GTP assay. A total of 54 compounds were tested, including virtual screening hits and closely related structures. According to our protocol, each compound was mixed with PfHPPK-GFP and submitted to a temperature gradient from 30 °C to 90 °C at 1 °C/min while GFP fluorescence was recorded. The first derivative of the resulting curve was used to determine the melting temperature (Tm). For each set of experiments, a negative control containing DMSO was added, and ΔTm values were calculated for each compound vs. the DMSO control. […] Two compound families were identified as the most promising by our DSF-GTP assay: 5-phenylazo-2,4-diaminopyrimidines (series 1) and phenyltriazolyl-2-amino-4-pyrimidinone (series 2). In series 2, linkers of different lengths that separate the phenyl triazolyl and the pyrimidine moieties were included.
In a typical DSF-GTP experiment, a master mix containing buffer and PfHPPK-GFP was prepared in a microcentrifuge tube, corresponding to a final protein concentration of 20 μg/mL. Ligands of interest were dispensed in low-profile 96-well plates (Bio-Rad) to 1 mM final concentration, and the master mix was dispensed to a final volume of 50 μL per well. In these conditions, DMSO content was maintained constant at 2%. The microplate was sealed with adhesive film and mixed by shaking for 2 min at 800 rpm at RT. The microplate was then submitted to a DSF run on a CFX96 RT-PCR (Bio-Rad, Hercules, CA, USA). DSF program was designed by starting with a 3 min equilibration phase at 30 °C, followed by a temperature gradient of 1 °C/min until 90 °C, recording fluorescence every 0.5 °C. Fluorescence was recorded using the FAM channel (λex = 450–490 nm, λem = 510–530 nm). Curves were fitted using the Precision Melt Analysis software (Bio-Rad).

PfHPPK = tested on: PfHPPK; design: method as in PMID 19631695; settings: substrate of monofunctional PfHPPK; cited from earlier work
PfHPPK-GFP [2] = target: T1, PfHPPK-GFP; assay: KinaseGlo enzyme inhibition assay; assay type: biochemical; settings: 1 mM compound, 10 μM HMDP and 10 μM ATP, 20 min at RT; read-out: Inhib. at 1 mM (%)
Description: For all the compounds displaying a measurable change of Tm, PfHPPK inhibition was recorded at 10 μM HMDP and ATP and 1 mM compound using the KinaseGlo assay. These conditions were chosen to be in the reported Km range for both HMDP and ATP substrates, enabling detection of both competitive and uncompetitive inhibitors. Compounds were incubated with HMDP, ATP and HPPK-GFP for 20 min at RT, followed by addition of the KinaseGlo reagent. After 10 min equilibration, luminescence was recorded, which directly reflects the quantity of ATP left in solution at the end of the reaction. Percentages of inhibition were calculated based on a DMSO positive control and a negative control lacking HPPK-GFP. Compounds structures, ΔTm and levels of inhibition appear in Table 1 and Table 2.
PfHPPK-GFP inhibition assay was carried using the KinaseGlo Plus kit (Promega, Madison, WI, USA). In a black 96-well plate were dispensed test compounds (1 μL of 50 mM DMSO stock), master mix (100 mM Tris pH 9, 10 mM β-mercapto ethanol, 10 mM MgSO4, 0.01% w/v BSA, 10 μM HMDP and 10 μM ATP). Reaction was initiated by addition of 2 μg of enzyme, reaching a total reaction volume of 50 μL, and reaction was allowed to proceed for 20 min at RT shaking at 300 rpm. Reaction was then quenched by addition of 50 μL KinaseGlo reagent and allowed to equilibrate for 10 min at RT shaking at 300 rpm. Luminescence was recorded on a Biotek Synergy H1 plate reader (Agilent, Santa Clara, CA, USA) using an integration time of 1 s per well. Percentage of inhibition was calculated related to a positive control experiment (no enzyme added) and a negative control experiment (no inhibitor added).

[3] = Metabolic stability in human liver microsomes; settings: human, liver microsomes
Description: (§1) Intrinsic clearance was also measured in both human and rat liver microsomes in order to assess sensitivity to metabolic degradation.
(§2) Metabolic stability of test compounds was determined in human and rat liver microsomes. The assay was adapted from a previously published method. Briefly, the test compounds were mixed with liver microsomes, and the metabolic reactions were initiated by the addition of NADPH. Acetonitrile containing an internal standard (labetalol) was added at 0, 5, 10, 30, and 60 min to stop the reactions. Samples were processed, and the remaining compounds in the reactions were detected using a LC-MS/MS. Distribution coefficient, solubility and polar surface area were predicted using Marvin software. Partition coefficient was predicted using ACD/Labs software.

[4] = Metabolic stability in rat liver microsomes; settings: rat, liver microsomes
Description: as §1, §2

[5] = tested on: Plasmodium falciparum TM4/8.2 (drug sensitive); assay: Antimalarial activity, [3H]-hypoxanthine incorporation assay, TM4/8.2; assay type: cell-based; settings: P. falciparum TM4/8.2 (drug sensitive), when no IC50 could be determined, highest tested concentration noted
Description: (§3) Finally, the various hit compounds were tested for their antimalarial activity against P. falciparum TM4/8.2 [26] and V1/S [27] strains. Parasite cultures were treated with test compounds at different concentrations, and antimalarial activity was measured using [3H]-hypoxanthine incorporation assay, according to our previously reported protocol. […] IC50 values could not be measured for other compounds. At this stage, there is no explanation for the difference in antiparasitic activity observed between TM4/8.2 and V1/S strains, and more investigations would be needed to conclude on this effect.
(§4) Compounds were tested for their antimalarial activity against P. falciparum TM4/8.2 [26] and V1/S [27] strains according to our previously reported protocol. In brief, parasite strains were maintained continuously in human erythrocytes in RPMI1640 supplemented with 25 mM HEPES pH 7.4, 0.2% NaHCO3, 40 µg/mL gentamicin and 8% human serum at 37 °C under 3% CO2. For in vitro antimalarial assay, parasite was treated with serial dilutions of the inhibitors, and parasite survival was determined using a modified microdilution radioisotope technique.

[6] = tested on: Plasmodium falciparum V1/S (drug resistant); assay: Antimalarial activity, [3H]-hypoxanthine incorporation assay, V1/S; assay type: cell-based; settings: Plasmodium falciparum, P. falciparum V1/S (drug resistant); when no IC50 could be determined, highest tested concentration noted
Description: as §3, §4

[7] = tested on: Vero cell line (African green monkey kidney cells); assay: Cytotoxicity, sulforhodamine B assay, Vero cells; assay type: cell-based; settings: Chlorocebus sabaeus, 72 h, when no IC50 could be determined, highest tested concentration noted
[8] = tested on: KB cell line (human epithelial carcinoma cells); assay: Cytotoxicity, sulforhodamine B assay, KB cells; assay type: cell-based; settings: 72 h, when no IC50 could be determined, highest tested concentration noted
PfHPPK-GFP [9] = target: T1, PfHPPK-GFP; assay: KinaseGlo enzyme inhibition assay; assay type: biochemical; settings: dose-response inhibition, read-out: IC50 against the enzyme

T1 sequence (Q25704 entry or part of it): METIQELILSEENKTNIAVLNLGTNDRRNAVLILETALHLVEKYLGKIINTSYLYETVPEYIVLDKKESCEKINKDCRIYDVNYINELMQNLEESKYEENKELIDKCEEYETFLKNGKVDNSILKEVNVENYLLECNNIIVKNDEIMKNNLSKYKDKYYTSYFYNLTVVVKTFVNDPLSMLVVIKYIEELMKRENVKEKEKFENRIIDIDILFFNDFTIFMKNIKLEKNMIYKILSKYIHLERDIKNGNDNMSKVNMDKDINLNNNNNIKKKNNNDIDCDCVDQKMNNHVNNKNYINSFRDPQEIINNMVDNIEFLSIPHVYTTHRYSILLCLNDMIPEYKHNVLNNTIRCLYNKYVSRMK

| Compound | Tm (PfHPPK-GFP [1]; PfHPPK-GFP in optimal buffer in the presence of 1 mM ATP (apo form 81 °C)) [°C] | Km (PfHPPK) [µM] | ΔTm at 1000 µM (PfHPPK-GFP [1]; read-out: ΔTm (°C)) [°C] | inhibition at 1000 µM (PfHPPK-GFP [2]) [%] | microsomal CLint [3] [µL/min/mg] | microsomal CLint [4] [µL/min/mg] | IC50 [5] [µM] | IC50 [6] [µM] | IC50 [7] [µM] | IC50 [8] [µM] | IC50 (PfHPPK-GFP [9]) [µM] |
| --- | --- | --- | --- | --- | --- | --- | --- | --- | --- | --- | --- |
| Nc1ncnc2c1ncn2[C@@H]1O[C@H](COP(=O)(O)OP(=O)(O)OP(=O)(O)O)[C@@H](O)[C@H]1O [ATP] | 80 | 13.2 |  |  |  |  |  |  |  |  |  |
| CCc1nc(N)[nH]c(=O)c1CCCc1cn(-c2cccc(C(=O)O)c2)nn1 [Compound 14, 2-Amino-6-ethyl-5-(3-(1-(3-(carboxy)phenyl)-1H-1,2,3-triazol-4-yl)propyl)pyrimidin-4(3H)-one] |  |  | -1.2 ± 0.3 | 42.8 ± 5.5 | 4.88 | 7.05 | > 50 | > 50 | > 50 | > 50 | 814 ± 47 |
